Reference: patent US20260327240A1, “1,4-CINEOLE DERIVATIVE AND INTERMEDIATE THEREOF, HERBICIDE CONTAINING SAID DERIVATIVE AS ACTIVE INGREDIENT, METHOD FOR USING HERBICIDE, AND METHOD FOR PREPARING AGROCHEMICAL COMPOSITION” (HOKKO CHEMICAL INDUSTRY CO., LTD., priority 2023, published 2026)

Assays:
Assay type in all cases: in vivo
[1] = system: Echinochloa crus-galli var. formosensis; assay: Test Example 6: herbicidal effect test by application during growth period of paddy rice; conditions: Echinochloa crus-galli, 7 days after sowing, 7.5 g per 10 ares, 14 days after application, read-out: weed inhibition rate
Experimental: Herbicidal Effect Test by Application During Growth Period of Paddy Rice
Wagner pots with an area of […] were filled with paddy soil, followed by addition of water and incorporation of chemical fertilizer (N:P:K=16:16:16), after which puddling was performed. After that, seeds of Echinochloa crus-galli var. formosensis, broad-leaved weeds (Lindemia pyxidaria, and Monochoria vaginalis), and Scirpus juncoides were sown at a depth of 0 cm to 1 cm, 30 seeds each. Immediately after sowing, the pots were flooded and a water depth of approximately 3 cm was maintained. Subsequent management was conducted in a glass greenhouse. Seven days after sowing, an emulsifiable concentrate prepared according to Formulation Example 5 using the compound shown below was diluted with water, and a specified amount of the diluted solution was applied by dropper. The amount of the active ingredient to be applied was equivalent to 7.5 g per 10 ares. The test was conducted in duplicate for each chemical concentration group, and the herbicidal effect was evaluated 14 days after chemical application using the same criteria as in Test Example 1.

Echinochloa crus-galli [2] = assay: Test Example 7: herbicidal effect test by soil application in upland field; conditions: Echinochloa crus-galli, 1 day after sowing, 7.5 g per 10 ares, 14 days after application, read-out: weed inhibition rate
Experimental: (§1) Herbicidal Effect Test by Soil Application in Upland Field
(§2) Pots with an area of 36 cm^2 were filled with upland soil (alluvial loam), twenty seeds each of weeds of Digitaria ciliaris, Echinochloa crus-galli, Chenopodium album, and Amaranthus viridis were uniformly mixed with the top 1 cm layer of soil and the surface was lightly pressed down. One day after sowing, an emulsifiable concentrate prepared according to Formulation Example 5 using the compound shown below was diluted with water, and the diluted solution was sprayed onto the soil surface at a rate of 100 liters per 10 ares. The amount of the active ingredient to be applied was equivalent to 7.5 g per 10 ares. Fourteen days after chemical application, the herbicidal effect was evaluated according to the same criteria as in Test Example 1.

Digitaria ciliaris [3] = assay: as above; conditions: Digitaria ciliaris, 1 day after sowing, 7.5 g per 10 ares, 14 days after application, read-out: weed inhibition rate
Experimental: as §1, §2

Echinochloa crus-galli [4] = assay: Test Example 8: herbicidal effect test by stem and leaf treatment in upland field; conditions: Echinochloa crus-galli, 7 days after sowing, 7.5 g per 10 ares, 14 days after application, read-out: weed inhibition rate
Experimental: Herbicidal Effect Test by Stem and Leaf Treatment in Upland Field
as §2, with “Seven days” for “One day”

[5] = system: Echinochloa crus-galli var. formosensis; assay: Test Example 2: herbicidal effect test by application during growth period of paddy rice; conditions: Echinochloa crus-galli, 7 days after sowing, 120 g per 10 ares, 14 days after application, read-out: weed inhibition rate
Summary of the method: (§3)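 Flooded paddy-soil pots (about 3 cm water) sown with 30 seeds per weed species and kept in a greenhouse. Emulsifiable concentrate applied by dropper seven days after sowing at 120 g active ingredient per 10 ares, in duplicate. Herbicidal effect scored 14 days after application.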

Scirpus juncoides = assay: as above; conditions: Schoenoplectiella juncoides, 7 days after sowing, 120 g per 10 ares, 14 days after application, read-out: weed inhibition rate
Summary of the method: as §3

Echinochloa crus-galli [6] = assay: Test Example 3: herbicidal effect test by soil application in upland field; conditions: Echinochloa crus-galli, 1 day after sowing, 120 g per 10 ares, 14 days after application, read-out: weed inhibition rate
Summary of the method: (§4)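 Twenty seeds per weed species were mixed into the top 1 cm of alluvial loam in pots. One day after sowing, an emulsifiable concentrate diluted in water was sprayed on the soil surface at 120 g active ingredient per 10 ares.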

Amaranthus viridis = assay: as above; conditions: Amaranthus viridis, 1 day after sowing, 120 g per 10 ares, 14 days after application, read-out: weed inhibition rate
Summary of the method: as §4

Digitaria ciliaris [7] = assay: as above; conditions: Digitaria ciliaris, 1 day after sowing, 120 g per 10 ares, 14 days after application, read-out: weed inhibition rate
Summary of the method: as §4

Echinochloa crus-galli [8] = assay: Test Example 4: herbicidal effect test by stem and leaf treatment in upland field; conditions: Echinochloa crus-galli, 7 days after sowing, 120 g per 10 ares, 14 days after application, read-out: weed inhibition rate
Summary of the method: (§5)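 Weeds sown in alluvial loam and sprayed 7 days after sowing with a water-diluted emulsifiable concentrate at 100 L per 10 ares, equivalent to 120 g active ingredient per 10 ares.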

Digitaria ciliaris [9] = assay: as above; conditions: Digitaria ciliaris, 7 days after sowing, 120 g per 10 ares, 14 days after application, read-out: weed inhibition rate
Summary of the method: as §5

CCOC(C)O[C@H]1C[C@]2(C)O[C@@]1(C(C)C)C[C@H]2OCc1ccccc1F (stereo partly drawn) [1-213, (1R,2S,4S,5R)-2-(1-ethoxyethoxy)-5-((2-fluorobenzyl)oxy)-1-isopropyl-4-methyl-7-oxabicyclo[2.2.1]heptane]
≥ 80%: inhibition at 75 g/ha [1] | inhibition at 75 g/ha (Echinochloa crus-galli [2]) | inhibition at 75 g/ha (Digitaria ciliaris [3]) | inhibition at 75 g/ha (Echinochloa crus-galli [4]) | inhibition at 1200 g/ha [5] | inhibition at 1200 g/ha (Scirpus juncoides) | inhibition at 1200 g/ha (Echinochloa crus-galli [6]) | inhibition at 1200 g/ha (Amaranthus viridis) | inhibition at 1200 g/ha (Digitaria ciliaris [7]) | inhibition at 1200 g/ha (Echinochloa crus-galli [8]) | inhibition at 1200 g/ha (Digitaria ciliaris [9])
